Assay [1] deals with FGFR4 in MDA-MB-453 cells (Homo sapiens, UniProt P22455). Description: Target occupancy assay with biotinylated covalent probe I-127. Type of assay: cell-based.
Protocol: In order to assess free FGFR4 protein a biotinylated covalent probe was utilized. […] The reaction was incubated for 2 hr at room temperature. The samples and probe mixture were transferred to a FGFR4-coated MSD plate for 2 hr at room temperature. MSD signals were obtained with an anti-streptavidin Sulfo-tag (Meso Scale) antibody for 1 hr at room temperature. […] If a compound completely (100%) covalently modies FGFR4 no free FGFR4 should be available for covalent modification by the biotinylated probe and subsequent binding to streptavidin and detection.
In a further assay the target is FGFR4-WT (Homo sapiens (Human), UniProt P22455). Description: Omnia assay for potency assessment against FGFR4 enzyme. Type of assay: biochemical. Conditions: [Y10-Sox]=10 uM. In short, it runs like this:
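Continuous fluorescence kinase assay using wild-type FGFR4 from either of two commercial sources, Tyr-Sox peptide substrate and ATP in pH 7.5 Tris buffer with MgCl2, EGTA, β-glycerophosphate, glycerol and DTT.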

For assay [2], the target named is pFGFR4 in MDA-MB-453 cells (Homo sapiens, UniProt P22455). Description: Washout experiment (pFGFR4 after compound removal). It is filed as cell-based. The conditions noted are these: 1000-2000 nM for 1 hr, washed, followed up to 24 hr. The method, then: The cells were allowed to settle down for 4 hrs and were then maintained in low-serum (0.1% FBS) media overnight. The following morning, the media was removed and the cells were treated with 1000-2000 nM of test compound in low-serum media for 1 hr. The cells were washed free of test compound (3×) with PBS (Invitrogen). One set of cells was immediately lysed as indicated above as the 0 hr time point. The remaining cells were incubated with the appropriate complete growth media (10-20% FBS) for 1, 2, 4, 8, 16 (in certain circumstances) and 24 hr. DMSO (0.5%) controls were collected at all time points.

A further assay addresses pFGFR4 in Huh7 cells (Homo sapiens (Human), UniProt P22455). Description: FGFR4 signaling, Meso Scale assay (MSD), Method B, Huh7.
Where [3] appears, read: method b: [FGFR4-WT]=2.5 nM (SignalChem), [ATP]=250 uM.
Where [4] appears, read: method a: [FGFR4-WT]=10 nM (Invitrogen), [ATP]=300 uM.

“Also recorded” adds a separate entry of the source.

FGFR4 in MDA-MB-453 cells, sequence (P22455 22-802 limits assumed): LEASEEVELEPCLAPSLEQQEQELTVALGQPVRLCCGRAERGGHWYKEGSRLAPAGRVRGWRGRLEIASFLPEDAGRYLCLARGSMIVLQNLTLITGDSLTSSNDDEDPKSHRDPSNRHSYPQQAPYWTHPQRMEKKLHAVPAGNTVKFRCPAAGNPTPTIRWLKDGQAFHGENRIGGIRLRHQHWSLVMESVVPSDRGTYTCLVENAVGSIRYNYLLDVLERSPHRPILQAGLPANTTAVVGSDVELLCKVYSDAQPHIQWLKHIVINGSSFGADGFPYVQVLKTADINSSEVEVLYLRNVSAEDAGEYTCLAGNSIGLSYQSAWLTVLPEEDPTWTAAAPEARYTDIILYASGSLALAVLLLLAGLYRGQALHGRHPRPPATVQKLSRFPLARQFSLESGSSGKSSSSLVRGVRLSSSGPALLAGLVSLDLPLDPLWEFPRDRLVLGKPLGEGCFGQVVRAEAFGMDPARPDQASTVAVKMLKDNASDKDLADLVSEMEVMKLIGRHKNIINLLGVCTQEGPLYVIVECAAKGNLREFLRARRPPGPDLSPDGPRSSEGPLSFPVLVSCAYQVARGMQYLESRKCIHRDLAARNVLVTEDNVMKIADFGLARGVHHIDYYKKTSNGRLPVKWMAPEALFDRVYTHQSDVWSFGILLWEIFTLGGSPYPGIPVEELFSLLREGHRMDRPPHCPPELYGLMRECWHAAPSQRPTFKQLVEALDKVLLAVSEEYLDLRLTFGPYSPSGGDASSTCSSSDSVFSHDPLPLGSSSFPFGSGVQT
FGFR4-WT, sequence (P22455 22-802): as the sequence (P22455 22-802 limits assumed) above
pFGFR4 in MDA-MB-453 cells, sequence (P22455 22-802 limits assumed): as above
pFGFR4 in Huh7 cells, sequence (P22455 22-802): as the sequence (P22455 22-802 limits assumed) above
Protocol for pFGFR4 in Huh7 cells: Huh7 cells were grown in DMEM (Invitrogen, Carlsbad, Calif.) supplemented with 10% FBS (Invitrogen) and 1% Penicillin-Streptomycin (P/S, Lonza, Walkersville, Md.).
For the MSD and ELISA assays, total FGFR4 antibodies were obtained from R&D Systems (Minneapolis, Minn.) and used at 1:500. […] Phospho-FGFR antibodies were obtained from Cell Signaling (Danvers, Mass.) or R&D Systems and used at 1:1000. The phopho-FGFR antibody from Cell Signaling was used for immunoblotting, whereas the phopho-FGFR antibody from R&D was used for MSD and ELISA assays. Secondary antibodies were used at 1:10,000. The goat anti-mouse IgG IRDye 800CW antibody was obtained from LiCor Biosciences (Lincoln, Nebr.) and the goat anti-rabbit IgG Alexa Fluor 680 was obtained from Invitrogen. The anti-rabbit Sulfo-tag and anti-streptavidin Sulfo-tag antibodies was obtained from Meso Scale Discovery (Gaithersburg, Md.), and were used at 1:1000 and 1:5000, respectively.
After treatment, the cells were washed with cold PBS (Invitrogen), and were immediately lysed by freeze/thawing 3× in 32 μL of cold Cell Extraction Buffer (Invitrogen), which was supplemented with Complete Protease inhibitors (Roche) and PhosphoSTOP (Roche) phosphatase inhibitors.
MSD plates (Meso Scale Discovery) were coated with total FGFR-4 antibodies overnight at 4° C. A lysate (25 μL) was added to the MSD plate overnight at 4° C. The MSD signals were obtained by incubating with a phospho-FGFR antibody (R&D Systems) and an anti-rabbit sulfo-tag antibody (Meso Scale), for 2 hr at room temperature. […] The data was fitted using a sigmoidal curve analysis program (Graph Pad Prism version 5) with variable Hill slope to determine the EC50 values.

In the case of `C=CC(=O)NC1CCCCC1Nc1ncc2c(n1)N(Cc1ccccc1)C(=O)N(c1c(Cl)c(OC)cc(OC)c1Cl)C2` (racemic) [Compound I-63], the EC50 (commonly the concentration at which the effect is half-maximal) in assay [1] was 101 to 500 nM.

With `CCC(=O)Nc1cccc(CN2C(=O)N(c3c(Cl)c(OC)cc(OC)c3Cl)Cc3cnc(Nc4ccccc4NC(=O)CC)nc32)c1` [Compound I-234], the IC50 – broadly, the concentration that gives 50% inhibition – at FGFR4-WT (setting [3]) fell in the range of 101 to 500 nM. Further, in assay [1], the EC50 is greater than 1000 nM. For the same compound, the “duration of action against pFGFR4 signalling after washout” value in assay [2] is listed as “does not show prolonged duration of action; also recorded: does not have PDA”.

Turning to `C=CC(=O)Nc1ccccc1Nc1ncc2c(n1)N(Cc1cccc(F)c1)C(=O)N(c1c(Cl)c(OC)cc(OC)c1Cl)C2` [Compound I-12], on FGFR4-WT (setting [3]), the IC50 lay within 101 to 500 nM. Further, the concentration giving a half-maximal response (EC50) in assay [1] lay within 101 to 500 nM.

Compound `C=CC(=O)NC1CCCCC1Nc1ncc2c(n1)N(Cc1cccnc1)C(=O)N(c1c(Cl)c(OC)cc(OC)c1Cl)C2` (racemic) [Compound I-35] came in with an EC50 in assay [1] of 101 to 500 nM.

Turning to `C=CC(=O)Nc1ccccc1Nc1ncc2c(n1)N(Cc1ccc(F)cc1)C(=O)N(c1c(Cl)c(OC)cc(OC)c1Cl)C2` [Compound I-25], on FGFR4-WT (setting [3]), the IC50 was in the range of 101 to 500 nM. At pFGFR4 in Huh7 cells, this compound registered an EC50 of 101 to 500 nM.

Turning to `C=CC(=O)Nc1cc(F)ccc1Nc1ncc2cc(-c3c(Cl)c(OC)cc(OC)c3Cl)c(=O)n(C)c2n1` [Compound I-245], the half-maximal inhibitory concentration (IC50) on FGFR4-WT (setting [4]) is less than 100 nM. The same compound showed a concentration giving a half-maximal response (EC50) on pFGFR4 in Huh7 cells of less than 100 nM.

For `C=CC(=O)Nc1cc(N(C)CCOC)ccc1Nc1ncc2c(n1)N(C)C(=O)N(c1cc(OC)cc(OC)c1)C2` [Compound I-21], at FGFR4-WT (setting [4]), the concentration for half-maximal inhibition (IC50) is less than 100 nM. This compound yielded an EC50 at pFGFR4 in Huh7 cells of less than 100 nM.

For the compound `C=CC(=O)Nc1cc(C(=O)NC2CCN(C)CC2)ccc1Nc1ncc2c(n1)N(C)C(=O)N(c1cc(OC)cc(OC)c1)C2` [Compound I-151], at FGFR4-WT (setting [4]), the half-maximal inhibitory concentration (IC50) is less than 100 nM. Further, the EC50 at pFGFR4 in Huh7 cells is greater than 1000 nM.

As to `C=CC(=O)NC1CCCCC1Nc1ncc2c(n1)N(Cc1cscn1)C(=O)N(c1c(Cl)c(OC)cc(OC)c1Cl)C2` (racemic) [Compound I-69], the “duration of action against pFGFR4 signalling after washout” value in assay [2] is reported as “prolonged inhibition of autophosphorylation of FGFR4; also recorded: prolonged duration of action”.

Regarding `C=CC(=O)Nc1ccccc1Nc1ncc2c(n1)N(C1CCCN(C(=O)OC(C)(C)C)C1)C(=O)N(c1cc(OC)cc(OC)c1)C2` (stereo not drawn) [Compound I-36], the concentration for half-maximal inhibition (IC50) at FGFR4-WT (setting [4]) is less than 100 nM. The EC50 at pFGFR4 in Huh7 cells lay within 101 to 500 nM.

Regarding `C=CC(=O)N[C@@H]1COC[C@@H]1Nc1ncc2c(n1)N(C)C(=O)N(c1c(Cl)c(OC)cc(OC)c1Cl)C2` [Compound I-185], on FGFR4-WT (setting [4]), the IC50 is greater than 1000 nM. The compound further had an EC50 on pFGFR4 in Huh7 cells greater than 1000 nM.

Take `C=CC(=O)Nc1ccccc1Nc1ncc2c(n1)N(CC(F)F)C(=O)N(c1cc(OC)cc(OC)c1)C2` [Compound I-99]: the half-inhibitory concentration (IC50) on FGFR4-WT (setting [4]) was less than 100 nM. Moreover, the 50% effective concentration (EC50) at pFGFR4 in Huh7 cells was in the range of 101 to 500 nM.

For the compound `C=CC(=O)Nc1nn(C)cc1Nc1ncc2c(n1)N(C)C(=O)N(c1c(Cl)c(OC)cc(OC)c1Cl)C2` [Compound I-117], the concentration for half-maximal inhibition (IC50) on FGFR4-WT (setting [4]) was less than 100 nM. Also, at pFGFR4 in Huh7 cells, the concentration giving a half-maximal response (EC50) was less than 100 nM.

Consider `C=CC(=O)N[C@H]1CCCC[C@H]1Nc1ncc2c(n1)N(C)C(=O)N(c1c(F)c(OC)cc(OC)c1Br)C2` [Compound I-228], for which, on FGFR4-WT (setting [4]), the IC50 fell in the range of 101 to 500 nM. The EC50 on pFGFR4 in Huh7 cells was in the range of 101 to 500 nM.

As to `C=CC(=O)Nc1ccccc1Nc1ncc2c(n1)N(CC(F)F)C(=O)N(c1c(F)c(OC)cc(OC)c1F)C2` [Compound I-116], the IC50 on FGFR4-WT (setting [4]) was less than 100 nM. The same compound showed an EC50 at pFGFR4 in Huh7 cells of less than 100 nM.

Consider `C=CC(=O)Nc1ccccc1Nc1ncc2c(n1)N(CC1CC1)C(=O)N(c1cc(OC)cc(OC)c1Cl)C2` [Compound I-100], for which the IC50 on FGFR4-WT (setting [4]) was less than 100 nM. The EC50 at pFGFR4 in Huh7 cells was less than 100 nM.

Turning to `C=CC(=O)Nc1ccccc1Nc1ncc2c(n1)N(CC(F)F)C(=O)N(c1cc(OC)cc(OC)c1Cl)C2` [Compound I-104], the half-maximal inhibitory concentration (IC50) at FGFR4-WT (setting [4]) was less than 100 nM. This compound also registered an EC50 on pFGFR4 in Huh7 cells of less than 100 nM.

For `CCC(=O)Nc1ccccc1Nc1ncc2c(n1)N(Cc1ccccc1)C(=O)N(c1c(Cl)c(OC)cc(OC)c1Cl)C2` [Compound I-236], the half-maximal inhibitory concentration (IC50) at FGFR4-WT (setting [3]) fell in the range of 101 to 500 nM. Also, the EC50 in assay [1] was greater than 1000 nM.

In the case of `C=CC(=O)NC1COCC1Nc1ncc2c(n1)N(CC)C(=O)N(c1c(Cl)c(OC)cc(OC)c1Cl)C2` (stereo not drawn) [Compound I-217], the IC50 at FGFR4-WT (setting [4]) was less than 100 nM. Further, on pFGFR4 in Huh7 cells, the EC50 is less than 100 nM.

On to `C=CC(=O)Nc1ccccc1Nc1ncc2c(n1)N(Cc1ccccc1)C(=O)N(c1c(Cl)c(OC)cc(OC)c1Cl)C2` [Compound I-3], for which the IC50 on FGFR4-WT (setting [3]) is less than 100 nM. In assay [1], the EC50 was less than 100 nM.

For `C=CC(=O)Nc1ccccc1Nc1ncc2c(n1)N(Cc1cn[nH]c1)C(=O)N(c1cc(OC)cc(OC)c1)C2` [Compound I-121], at FGFR4-WT (setting [4]), the half-inhibitory concentration (IC50) is less than 100 nM. Besides, the EC50 at pFGFR4 in Huh7 cells is less than 100 nM.

For the compound `C=CC(=O)Nc1cc(N(C)CCOC)ccc1Nc1ncc2c(n1)N(Cc1ccccc1)C(=O)N(c1cc(OC)cc(OC)c1)C2` [Compound I-13], the half-maximal inhibitory concentration (IC50) at FGFR4-WT (setting [3]) lay in the range of 101 to 500 nM. In addition, the EC50 on pFGFR4 in Huh7 cells was 101 to 500 nM.

The record behind these values is US9695132B2, “Heteroaryl compounds and uses thereof” (Celgene CAR LLC, priority 2013, dated 2017).
